Structures are written as SMILES. Where two headings read alike, the source gives them in different places.

Here are results for five molecules from US5438130A, “Fucosylated guanosine disulfates as excitatory amino acid antagonists” (priority 1993, dated 1995).

Data set [1] deals with kainate receptor. As to conditions: printed for comparison; source not stated; read-out: IC50 (comparison, non-NMDA antagonists); cited from earlier work.
For data set [2], the system named is delayed neuronal degeneration following transient forebrain ischemia. The settings on record: cited from earlier work.
The conditions of data set [3]: in vivo; cited from earlier work.
In the next data set the test system is stroke. The settings on record: cited from earlier work.
The conditions of data set [4]: in vivo; cited from earlier work. This is another data set of the same source.
Data set [5] concerns ionic currents elicited by glutamate in fish retinal neurons. Briefly: Voltage clamp of glutamate-elicited currents in fish retinal neurons. It counts as cell-based. As to conditions: glutamate 50μM.
For data set [6], the system named is T-type calcium currents in N1E-115 murine neuroblastoma cells. Description: T-type calcium currents in N1E-115 neuroblastoma cells, whole cell voltage clamp. It counts as cell-based. As to conditions: -90 mV to -25 mV; especially between 0 and 90μM; FIG. 7. The procedure:
(§1) L-type calcium currents were obtained from cultured N1E-115 murine neuroblastoma cells using standard whole cell voltage clamp techniques [Hamill, O. P. et al. Pflugers Archives 391:85 (1981)]. For recording inward currents, external calcium was substituted with barium. Cells were maintained in a external recording solution containing TEA.Cl, 130 mM; BaCl2, 5 mM; glucose, 10 mM; HEPES, 10 mM; tetrodotoxin, 1μM; pH 7.4). The pipette solution contained CsCl, 115 mM; EGTA, 10 mM; HEPES, 10 mM; Mg.ATP, 4 mM.
(§2) Two sets of experiments were conducted to determine the concentration dependence of both L- and T-type calcium currents to HF7. Each experiment was conducted in a manner similar to that in which the FIG. 6 experiment was performed. Inward L-type currents were elicited by depolarizing test pulses to +10 mV from a resting potential of -50 mV. Inward T-type currents were elicited by depolarizing test pulses to -25 mV from a resting potential of -90 mV. Six doses of HF7 were utilized for each set of experiments. Each dose was tried on three different cells. Responses to HF7 were calculated as percent inhibition of control current. Negative values represent current levels that were greater than control.

The target in data set [7] is kainate receptor. Description: Displacement of [3H]-kainate, rat forebrain crude synaptic membranes. The settings on record: 50 mM Tris-acetate; 1 hour at 4° C.; FIG. 3; read-out: IC50, displacement of [3H]-kainate binding. The procedure: The ability of HF7 to block the kainate receptor was tested using a [^3 H]-kainate binding assay. More specifically, a standard receptor binding assay [London, E. D. et al. Molecular Pharmacol. 15:492 (1979)] was performed to determine the extent to which HF7 could displace the binding of radioactive kainate ([^3 H]-kainate, 1.0 mCi/ml, NEN). The membrane source was frozen rat forebrain crude synaptic membranes treated with detergent (0.01% TRITON-X100). Radioligand binding was determined using 50 mM Tris-acetate buffer. Samples were incubated for 1 hour at 4° C. and then filtered over either Whatman GF/B or Schleicher & Schuell glass filters. Non-specific binding was determined using 10^-4 M glutamate. [^3 H]-kainate binding was linear from 50-400 μg protein/tube.
On the technique in general: Displacement assays read how much labelled ligand stays bound in the presence of the test substance.

Data set [8] has as its system L-type calcium currents in N1E-115 murine neuroblastoma cells. Briefly: L-type calcium currents in N1E-115 neuroblastoma cells, whole cell voltage clamp. In kind it is cell-based. The procedure:
as §1
The results from one experiment can be seen in FIG. 6. A depolarizing test pulse to +10 mV elicited an inward current of ~240 pA, which was reduced by 20% by pressure-ejection (6 psi) of 22μM HF7. The effects of HF7 blockade were partially reversible (60% recovery) subsequent to washout of HF7. The voltage protocol is shown in the inset. Cells were held at Vh =-50 mV. L-type currents were evoked following a depolarizing voltage step to +10 mV.
as §2

The subject of another data set is kainate receptors. Briefly: Voltage clamp of kainate-elicited currents in fish retinal horizontal cells. In kind it is cell-based. From the text: In this experiment, kainate currents were obtained from primary cultures of fish retinal horizontal cells using standard whole cell voltage clamp techniques [Hamill, O. P. et al. Pflugers Archives 391:85 (1981)]. For recordings cells were maintained in a physiological saline containing (in mM) NaCl, 145; KCl, 2.5; CaCl2, 2.5; MgSO4, 1.0; glucose, 10; HEPES, 10, pH 7.5). Cells were held near resting potential (Vh =-60 mV). Kainate current was elicited by superfusion of a solution of physiological saline solution containing 25μM kainate.
(§3) Two sets of experiments were conducted to determine the concentration dependence of both kainate and quisqualate currents to HF7. Each experiment was conducted in a manner similar to that in which the FIG. 4 experiment was conducted. Inward currents were elicited by bath perfusion of either 25μM kainate or by 10μM quisqualate. Six doses of HF7 were utilized for each set of experiments. Each dose was tried on three different cells. Responses to HF7 were calculated as a percent of control kainate current. […] Each point in FIG. 5 is the mean of measurement from three different cells.

Data set [9] deals with quisqualate currents in fish horizontal cells. Briefly: Voltage clamp of quisqualate-elicited currents in fish retinal horizontal cells. It counts as cell-based. The settings on record: quisqualate 10μM. On the procedure:
as §3

In data set [10] the test system is glutamate-induced current. Description: Whole cell recording of glutamate-induced current under voltage clamp (HPLC fraction assay). It counts as cell-based. The settings on record: HF7 peak, voltage clamp mode. The procedure: The components were eluted from the column stepwise with 0%, 2% and 4% acetonitrile in 0.1% TFA for the duration of 45 min., 15 min. and 40 min., respectively, at a flow rate of 2 ml/min. The elution was monitored by absorbance at 214 nm (FIG. 2) and 254 nm. According to the elution profile, fractions were collected manually and, after being dried down and dissolved in an appropriate buffer, were assayed in whole cell recording of glutamate-induced current under the voltage clamp mode (see "Functional Characterization" below for details). […] The other batch of HF7 was also purified with a slightly different program of acetonitrile stepwise elution (1% for 20 min., 2% for 20 min. and 4% for 40 min.), resulting in a shorter operation time without a significant change in the elution profile.

The IC50 is the concentration needed to halve the response being measured. With `O=c1[nH]c2cc([N+](=O)[O-])c([N+](=O)[O-])cc2[nH]c1=O` [DNQX], the IC50 at kainate receptor [1] is roughly 2 µM.

As for `NS(=O)(=O)c1cccc2c1c([N+](=O)[O-])cc1nc(O)c(O)nc12` [NBQX, 2,3-dihydroxy-6-nitro-7-sulfamoyl-benzo(F)quinoxaline], the “protection on delayed administration” value in [2] (administered several hours after the ischemic insult) is “protection was observed”. Also, the “prevention of delayed neuronal degeneration following transient forebrain ischemia” value in [2] (gerbils and rats, relatively large systemic doses) was “dramatically effective”. Also, the “crossing of the blood-brain barrier” value in [3] is “only in minute amounts”.

With `COCCOC(=O)C1=C(C)NC(C)=C(C(=O)OC(C)C)C1c1cccc([N+](=O)[O-])c1` (stereo not shown) [nimodipine], the “improvement in the outcome of stroke” value in the data set with stroke (clinical trials) is on record as “Modest improvement”. Further, the cardiovascular side effects entry with stroke (in vivo) is reported as “significant cardiovascular side effects”. In [4], the “toxicity relative to NMDA antagonists” value is given as “less toxic than the NMDA antagonists”.

In the case of `N#Cc1cc2[nH]c(=O)c(=O)[nH]c2cc1[N+](=O)[O-]` [CNQX], at kainate receptor [1], the IC50 was roughly 2 µM.

As to `CC(=O)OC1C(C)OC(O[C@@H]2[C@H](OS(=O)(=O)O)[C@@H](COS(=O)(=O)O)O[C@H]2n2cnc3c(=O)[nH]c(N)nc32)C(O)C1O` (stereo partly shown) [HF7], the “inhibition of ionic currents elicited by glutamate” value in [5] is on record as “reversibly inhibited”. For the same molecule, in data set [6], the “effect on T-type current” value is listed as “much more variable”. In addition, the IC50 was roughly 20.7 µM on kainate receptor [7]; roughly 60 µM with kainate receptors (kainate 25μM, mean of three cells per dose, FIG. 5, read-out: IC50, kainate current); roughly 60 µM in [9] (mean of three cells per dose, FIG. 5, read-out: IC50, quisqualate current). Also, in [8] (22μM HF7, Vh = -50 mV, test pulse to +10 mV, FIG. 6), the “reduction of L-type inward current” value is 20%. In data set [8] (subsequent to washout of 22μM HF7, partially reversible), the “recovery of L-type current after washout” value was 60%. In data set [8] (throughout the concentration range used, -50 mV to +10 mV, FIG. 7), the “concentration dependence of L-type current inhibition” value was “inhibited in a concentration dependent manner”. For the same molecule, the “effect on kainate-elicited inward current” value in the data set on kainate receptors (approximately 180μM HF7, pressure-ejection, Vh = -60 mV, kainate 25μM) is “virtually eliminated”. In addition, the “inhibition of ionic currents elicited by kainate” value in the data set on kainate receptors (kainate 25μM) is on record as “reversibly inhibited”. Also, the “reversibility of HF7 blockade of kainate current” value in the data set with kainate receptors (subsequent to washout) is on record as “fully reversible”. Besides, the “inhibition of the kainate response” value in the data set with kainate receptors (~200μM HF7, FIG. 4, kainate 25μM) is recorded as “near-complete inhibition”. Besides, the “inhibition of ionic currents elicited by quisqualate” value in data set [9] is given as “reversibly inhibited”. Besides, the “activity on glutamate-induced current” value in data set [10] was “found to be active”.
